Like-named read-outs stand apart in the source and are kept apart here.
How the values were obtained:
[1] = system: tubulin; test: Inhibition of [3H]colchicine binding to tubulin; design: species or system bovine; details: for Inhibition of colchicine binding % inhibition: 1.0 μM tubulin, 5.0 μM [3H]colchicine, 5.0 μM inhibitor, 10 min at 37° C.
Method: Reaction mixtures contained 0.1 mg/mL (1.0 μM) tubulin, 5.0 μM [3H]colchicine, and 5.0 μM inhibitor and were incubated for 10 min at 37° C.

[2] = system: NCI 60 Cell-Line Human Tumor Screen; test: NCI 60 cell-line human tumor screen; assay type: cell-based; details: read-out: Mean Panel GI50 (±S.D)
Source text: (§1) Compounds 3b, 3d, 1d, and 4a-f were comparatively evaluated in the NCI 60 cell-line human tumor screen (Boyd, Status of the NCI preclinical antitumor drug discovery screen. Implications for selection of new agents for clinical trial, CANCER: Principles and Practices of Oncology Updates, DeVita, et al. (Eds.), Lippincott: Philadelphia, 1989; Vol. 10, No. 3, pp. 1-12; Boyd, The Future of New Drug Development. Section I. Introduction to Cancer Therapy, Current Therapy in Oncology, Niederhuber, (Ed.), B. C. Decker, Inc.: Philadelphia, 1993; pp. 11-22; Boyd, et al., Data display and analysis strategies from NCI disease-oriented in vitro antitumor drug screen. In Cytotoxic Anticancer Drugs: Models and Concepts for Drug Discovery and Development, Valeriote, et al. (Eds.), Kluwer Academic Publishers: Amsterdam, 1992; pp. 11-34; Stinson, et al., Morphological and Immunocytochemical Characteristics of Human Tumor Cell Lines for Use in a Disease-Oriented Anticancer Drug Screen, Anticancer Res. 1992, 12,-1035-1054; Boyd, et al., Some Practical Considerations and Applications of the NCI in vitro Drug Discovery Screen, Drug Dev. Res. 1995, 34, 91-109).

[3] = system: bovine brain tubulin; test: Inhibition of tubulin polymerization; assay type: biochemical; details: for IC50: 10 μM tubulin, extent of assembly after 20 min at 30° C., read-out: Inhibition of tubulin polymerization IC50, μM ± SD; for activity against tubulin / in inhibiting assembly (in words): purified tubulin
Method: Electrophoretically homogeneous bovine brain tubulin was purified from bovine brain as described previously (Hamel, et al., Separation of active tubulin and microtubule-associated proteins by ultracentrifugation and isolation of a component causing the formation of microtubule bundles, Biochemistry 1984, 23, 4173-4184). Reaction mixtures (0.24 mL during preincubation, 0.25 mL during incubation, with all concentrations referring to the final volume) contained 0.8 M monosodium glutamate (taken from 2.0 M stock solution adjusted to pH 6.6 with Hcl), 1.0 mg/mL (10 μM) tubulin, 4% (v/v) dimethyl sulfoxide, and varying concentrations of drug. Samples were incubated for 15 min at 30° C. and chilled on ice. GTP, required for polymerization, was added in 10 μL to a final concentration of 0.4 mM. Samples were transferred to cuvettes held at 0° C. by electronic temperature controllers in GILFORD model 250 recording spectrophotometers. Baselines were established, and the reaction was initiated by a jump (approximately 1 min) to 30° C. Extent of assembly after 20 min was the parameter used to determine IC50 values. […] In most experiments, four spectrophotometers were used, with two control reaction mixtures.

[4] = system: pharynx FADU; test: Human cancer cell line inhibition, pharynx FADU; assay type: cell-based
Source text: as §1

[5] = system: prostate DU-145; test: Human cancer cell line inhibition, prostate DU-145; assay type: cell-based
Source text: as §1

[6] = system: CNS U251; test: Human cancer cell line inhibition, CNS U251; assay type: cell-based; details: U-251
Source text: as §1

[7] = system: P388 Lymphocytic Leukemia Cell Line; test: Murine P388 lymphocytic leukemia cell line growth inhibition; assay type: cell-based
[8] = system: A498; test: Human cancer cell growth inhibition, renal A498; assay type: cell-based
[9] = system: SK-MEL-5; test: Human cancer cell growth inhibition, melanoma SK-MEL-5; assay type: cell-based
[10] = system: SF-295; test: Human cancer cell growth inhibition, CNS SF-295; assay type: cell-based
[11] = system: NCI-H460; test: Human cancer cell growth inhibition, lung-NSC NCI-H460; assay type: cell-based
[12] = system: KM20L2; test: Human cancer cell growth inhibition, colon KM20L2; assay type: cell-based
[13] = system: OVCAR-3; test: Human cancer cell growth inhibition, ovarian OVCAR-3; assay type: cell-based
[14] = Solubility in distilled water; assay type: physicochemical; details: distilled water at 25° C.
Method: The deprotected phosphate (0.44 g, 1.10 mmol) was dissolved in anhydrous methanol (15 mL) and sodium methoxide ([…], 2.20 mmol) was added at room temperature. The cloudy solution was stirred for 20 hours and the reaction mixture was concentrated to a white solid that was washed with 2-propanol and recrystallized (3×) from water-acetone. The phenstatin prodrug (3d, 0.38g, 78% yield) was collected by filtration and found to give; LRFAB m/z 443.02 (M+H+), calculated 443.048, EIMS m/z (peak height) 318 (100%, M+—PO3Na2+H), 303 (12%), 195 (20%), 151 (23%); ^1H-NMR (D2O) δH 7.644 (1H, t, J2/61.8 Hz, H-2), 7.366 (1H, dd, J6/2 1.8 Hz, J6/58.5 Hz, H-6), 7.006 (1H, d, J5/6 8.5 Hz, H-5), 6.933 (2H, s, H-2′, 6′), 3.844 (3H, s, 4′-OCH3), 3.748 (6H, s, 3′, 5′-OCH3) 3.734 (3H, s, 4OCH3); ^13C-NMR (D2O, reference to CDCl3) δC 193.5 (C═O), 151.1; and ^31P-NMR (D2O, decoupled, […]) δP −1.965.

[15] = Homo sapiens, mean over NCI 60 cell-line panel, tested in triplicate
[16] = mean over NCI 60 cell-line panel, tested in triplicate

| SMILES | Inhibition of colchicine binding % inhibition [1] | melting point | IC50 [3] | activity against tubulin / in inhibiting assembly (in words) [3] | other results |
| --- | --- | --- | --- | --- | --- |
| COc1cc(C(=O)c2ccc3c(c2)OCO3)cc(OC)c1OC [Compound 4a, 3,4,5-trimethoxy-3′,4′-methylenedioxybenzophenone] | 0% | 124 to 125 °C | 15 ± 2 µM | only weak activity | GI50 [2, 15]: 2.7 µM |
| COc1ccc(C(=O)c2cc(OC)c(OC)c(OC)c2)cc1OC(C)=O [Compound 3e, Phenstatin Acetate] | 71% | 164 to 165 °C | 3.5 ± 0.5 µM |  | G50 [4]: 0.0055 µg/mL; GI50 [5]: 0.0029 µg/mL; GI50 [6]: 0.0039 µg/mL |
| COc1ccc(C(=O)c2cc(OC)c(OC)c(OC)c2)cc1OP(=O)([O-])[O-].[Na+].[Na+] [Compound 3d, Disodium Phenstatin 3-O-phosphate] | 37% |  | 21 ± 3 µM | weak activity | GI50 [7]: <0.001 µg/mL; GI50 [8]: 0.05 µg/mL; activity as an inhibitor of colchicine binding (in words) [1]: moderate activity; activity relative to phenstatin in colchicine binding assay ([1]; relative to phenstatin 3b): about 40%; GI50 [9]: 0.0047 µg/mL; GI50 [2, 16]: 0.0733 µM; GI50 [10]: 0.012 µg/mL; GI50 [11]: 0.035 µg/mL; GI50 [12]: 0.27 µg/mL; GI50 [13]: 0.0025 µg/mL; solubility [14]: 30 mg/mL |
| COc1ccc(CCc2cc(OC)c(OC)c(OC)c2)cc1 [Compound 8b, reference compound] | 54% |  | 3.2 ± 0.3 µM |  |  |
| COc1ccc(CCc2cc(OC)c(OC)c(OC)c2)cc1O [Compound 8a, reference compound] | 77% |  | 2.1 ± 0.3 µM |  |  |
| COc1ccc(/C=C\c2cc(OC)c(OC)c(OC)c2)cc1OP(=O)([O-])[O-].[Na+].[Na+] [Compound 1d, combretastatin A4 sodium phosphate, reference compound] | 4% |  | > 80 µM | totally inactive | GI50 [7]: 0.0004 µg/mL; GI50 [8]: 0.041 µg/mL; GI50 [9]: 0.041 µg/mL; GI50 [2, 16]: 0.0128 µM; GI50 [10]: 0.036 µg/mL; GI50 [11]: 0.029 µg/mL; GI50 [12]: 0.34 µg/mL; GI50 [13]: 0.023 µg/mL |
| COc1ccc(/C=C\c2cc(OC)c(OC)c(OC)c2)cc1O [Compound 1b, combretastatin A-4, reference compound] | 97% |  |  |  |  |
| COc1cc(OC)cc(C(=O)c2cc(OC)c(OC)c(OC)c2)c1 [Compound 4d, 3,3′,4,5,5′-pentamethoxybenzophenone] | 58% | 121 to 122 °C | 3.6 ± 0.8 µM |  | GI50 ([2]; Homo sapiens): 0.543 µM; fold less potent than phenstatin in inhibiting tubulin polymerization ([3]; relative to phenstatin 3b): 3-4 fold |
| COc1cc(C(=O)c2cc(Cl)cc(Cl)c2)cc(OC)c1OC [Compound 4e, 3,5-dichloro-3′,4′,5′-trimethoxybenzophenone] |  | 131 to 132 °C |  | almost inert | GI50 [2, 15]: 5.12 µM |
| COc1ccc(Cc2cc(OC)c(OC)c(OC)c2)cc1O [Compound 7a, reference compound] | 65% |  | 3.3 ± 0.5 µM |  |  |
| COc1cc(C(=O)c2cc(F)cc(F)c2)cc(OC)c1OC [Compound 4f, 3,5-difluoro-3′,4′,5′-trimethoxybenzophenone] | 0% | 121 to 123 °C | 39 ± 7 µM | almost inert | GI50 ([2]; Homo sapiens): 4.94 µM |
| COc1cc(C(=O)c2cc(C)cc(C)c2)cc(OC)c1OC [Compound 4b, 3,4,5-trimethoxy-3′,5′-dimethylbenzophenone] | 7% | 104 to 105 °C | 11 ± 2 µM |  | GI50 [2, 15]: 3.48 µM; further fold drop in activity against tubulin ([3]; relative to 4d): 3 fold |
| COc1ccc(C(=O)c2cc(OC)c(OC)c(OC)c2)cc1OC [Compound 4c, 3,3′,4,4′,5-pentamethoxybenzophenone] | 1% |  | 15 ± 2 µM |  | GI50 [2, 15]: 5.11 µM |
| COc1ccc(C=Cc2cc(OC)c(OC)c(OC)c2)cc1 [Compound 1e, reference compound] | 97% |  | 1.3 ± 0.2 µM |  |  |
| COc1ccc(Cc2cc(OC)c(OC)c(OC)c2)cc1 [Compound 7b, reference compound] | 56% |  | 4.4 ± 0.2 µM |  |  |

— patent US6943194B1, “Synthesis of phenstatin and prodrugs thereof” (Arizona Board of Regents, acting for and on behalf of …, priority 1998, dated 2005)
